According to the NIST ThermoML archive (doi:10.1016/j.jct.2008.09.002):
Numbers after ± are expanded uncertainties.

Key:
[1] = 101.33 kPa, Liquid; for speed of sound: Anton-Paar DSA48 sound analyzer; for mass density: Vibrating tube method
[2] = molar heat capacity at constant pressure; conditions: 101.33 kPa, Liquid, Small sample (50 mg) DSC
[3] = excess molar enthalpy (molar enthalpy of mixing); xn = mol fraction of the nth substance listed; conditions: 303.15 K, 101.3 kPa, Liquid, Calvet calorimetry

Row | SMILES | speed of sound ([1]; 293.15 K) | mass density ([1]; 293.15 K) | speed of sound ([1]; 298.15 K) | mass density ([1]; 298.15 K) | speed of sound ([1]; 303.15 K) | mass density ([1]; 303.15 K) | speed of sound ([1]; 308.15 K) | mass density ([1]; 308.15 K) | speed of sound ([1]; 313.15 K) | mass density ([1]; 313.15 K) | speed of sound ([1]; 318.15 K) | mass density ([1]; 318.15 K) | molar heat capacity at constant pressure ([2]; 293.15 K) | molar heat capacity at constant pressure ([2]; 298.15 K) | molar heat capacity at constant pressure ([2]; 303.15 K) | molar heat capacity at constant pressure ([2]; 308.15 K) | molar heat capacity at constant pressure ([2]; 313.15 K) | molar heat capacity at constant pressure ([2]; 318.15 K) | also measured
1 | CCn1cc[n+](C)c1.O=S(=O)([O-])C(F)(F)F [1-ethyl-3-methylimidazolium trifluoromethanesulfonate] | 1447 ± 2 m/s | 1389.5 ± 1.7 kg/m3 | 1435.6 ± 2 m/s | 1385.3 ± 1.7 kg/m3 | 1424.3 ± 2 m/s | 1381.1 ± 1.7 kg/m3 | 1413.1 ± 2 m/s | 1376.9 ± 1.7 kg/m3 | 1402.1 ± 2 m/s | 1372.7 ± 1.7 kg/m3 | 1391.1 ± 2 m/s | 1368.6 ± 1.7 kg/m3 | 361.1 ± 5.6 J/K/mol | 363.2 ± 5.6 J/K/mol | 365.3 ± 5.7 J/K/mol | 367.4 ± 5.7 J/K/mol | 369.6 ± 5.7 J/K/mol | 371.8 ± 5.8 J/K/mol | –
2 | CCCCCCn1cc[n+](C)c1.F[B-](F)(F)F [1-hexyl-3-methylimidazolium tetrafluoroborate] | 1532.7 ± 2 m/s | 1148.8 ± 1.2 kg/m3 | 1519.5 ± 2 m/s | 1145.3 ± 1.1 kg/m3 | 1506.9 ± 2 m/s | 1141.8 ± 1.1 kg/m3 | 1494.5 ± 2 m/s | 1138.4 ± 1.1 kg/m3 | 1482.3 ± 2 m/s | 1135 ± 1.1 kg/m3 | 1470.5 ± 2 m/s | 1131.6 ± 1.1 kg/m3 | 425.1 ± 6.6 J/K/mol | 427.8 ± 6.6 J/K/mol | 430.4 ± 6.7 J/K/mol | 433 ± 6.7 J/K/mol | 435.5 ± 6.7 J/K/mol | 438.1 ± 6.8 J/K/mol | –
3 | C[N+](=O)[O-] [nitromethane] | 1339.6 ± 1.5 m/s | 1140.2 ± 0.7 kg/m3 | 1320.1 ± 1.5 m/s | 1133.4 ± 0.7 kg/m3 | 1300.5 ± 1.5 m/s | 1126.6 ± 0.7 kg/m3 | 1280.7 ± 1.5 m/s | 1119.7 ± 0.6 kg/m3 | 1261.1 ± 1.5 m/s | 1112.9 ± 0.6 kg/m3 | 1241.6 ± 1.5 m/s | 1106 ± 0.6 kg/m3 | 106.6 ± 1.7 J/K/mol | 106.9 ± 1.7 J/K/mol | 107.3 ± 1.7 J/K/mol | 107.7 ± 1.7 J/K/mol | 108.2 ± 1.7 J/K/mol | 108.6 ± 1.7 J/K/mol | –
4 | C[N+](=O)[O-] [nitromethane] + CCCC[n+]1cccc(C)c1.F[B-](F)(F)F | – | – | – | – | – | – | – | – | – | – | – | – | – | – | – | – | – | – | excess molar enthalpy ([3]; x2 = 0.0992): -0.0602 ± 0.00478 kcal/mol; excess molar enthalpy ([3]; x2 = 0.1547): -0.0784 ± 0.00621 kcal/mol; excess molar enthalpy ([3]; x2 = 0.1998): -0.0958 ± 0.00765 kcal/mol; excess molar enthalpy ([3]; x2 = 0.3029): -0.106 ± 0.0086 kcal/mol; excess molar enthalpy ([3]; x2 = 0.3978): -0.114 ± 0.00908 kcal/mol; excess molar enthalpy ([3]; x2 = 0.4973): -0.112 ± 0.00908 kcal/mol; excess molar enthalpy ([3]; x2 = 0.6053): -0.0946 ± 0.00765 kcal/mol; excess molar enthalpy ([3]; x2 = 0.7038): -0.0803 ± 0.00645 kcal/mol; excess molar enthalpy ([3]; x2 = 0.795): -0.0557 ± 0.00454 kcal/mol; excess molar enthalpy ([3]; x2 = 0.8525): -0.0387 ± 0.00311 kcal/mol
